We go through six compounds from patent US20230144898A1, “INHIBITOR OF ASPARTIC ACID SYNTHESIS IN TUMOR CELLS, INHIBITOR OF SPHEROID FORMATION OF TUMOR CELLS, INHIBITOR OF TUMOR CELL METASTASIS, ACTIVITY ENHANCER OF GLYCOLYTIC INHIBITOR, AND PHARMACEUTICAL COMPOSITION FOR SUPPRESSING AND/OR PREVENTING TUMOR METASTASIS” (CCI HOLDINGS INC., priority 2020, published 2023).

In brackets after ≈: the same amount, converted by molar mass. Where two headings read alike, the source gives them in different places.

For one assay, the system named is B16F10 cells. Kind of assay: Influence on anticancer action of 2-DG, cell viability (Test Example 3). It is filed as cell-based, mouse. The following applies: 2-DG 3 mM to 3 nM, negative control section (DMSO), 36 hours. The protocol:
Specifically, to start with, B16F10 cells were seeded in a six-well plate in an amount of 0.5×10^5 cells/mL. Next, after 24 hours starting from seeding, 2-DG (concentration changed from 3 mM to 3 nM) was added and simultaneously treated with neopetasin at a concentration of 0.3 µM or 3 µM. Then, after 36 hours starting from this treatment, the cell viability was measured through the same method as in Test Example 1. Moreover, as a negative control section, DMSO was administered to perform the same experiment.

Assay [1] deals with CMeCl cells (canine malignant melanoma cells). The experiment in a line: Proliferation inhibition, CMeC1 cells, trypan blue viable cell count (Test Example 1). It is filed as cell-based. The following applies: Cell line: CMeC1, incubated for 72 hours; for IC50: read-out: IC50. How it is done: Four compounds of petasin, S-petasin, neopetasin and neo-S-petasin were evaluated for the inhibitory effect on proliferation of mouse or canine malignant melanoma cells by the following method.
B16F10 cells (mouse malignant melanoma cells) were obtained from JCRB Cell Bank (National Institutes of Biomedical Innovation, Health and Nutrition). In addition, CMeCl cells (canine malignant melanoma cells) were obtained from Veterinary Surgery Laboratory, Graduate School of Agricultural and Life Sciences, the University of Tokyo. Furthermore, A2058 cells (human malignant melanoma cells) were obtained from JCRB Cell Bank (National Institutes of Biomedical Innovation, Health and Nutrition). B16F10 cells were cultured in a 37° C. incubator (air/CO2 = 95/5 (v/v)) using Dulbecco’s modified Eagle’s medium (DMEM), CMeCl cells in RPMI (Roswell Park Memorial Institute) medium (RPMI1640), and A2058 cells in E-MEM medium.
First, CMeCl cells (canine malignant melanoma cells) were seeded in a six-well plate so as to be 0.5×10^5 cells/mL, and after 24 hours therefrom, each of the above four kinds of compounds (final concentration: 0.01 to 100 µg/mL) was suspended in the medium at a ratio of 0.1% and incubated for 72 hours. 72 hours after the start of culture, the number of viable cells was measured by trypan blue staining. At this time, viable cells (cell viability%) were calculated as the relative number of cells when the number of viable cells in a negative control section (DMSO treatment) was taken as 100%. Then, IC50 was calculated using a GraphPad Prism software system (GraphPad Software Inc.).

The test system of a further assay is colon cancer cell lines. The following applies: cited from earlier work.
Assay [2] concerns B16F10 cells (mouse malignant melanoma cells). The following applies: cited from earlier work.
Assay [3] concerns mitochondria in B16F10 cells. Kind of assay: MitoTracker Orange staining of mitochondria (Test Example 8). It is filed as cell-based, mouse. The following applies: neopetasin 3 µM, metformin 5000 µM; 48 hours. How it is done: In order to determine the action mechanism of neopetasin on inhibiting the aspartic acid synthesis in tumor cells, the influence of neopetasin on mitochondria in B16F10 cells was evaluated. Specifically, B16F10 cells treated with neopetasin (3 µM) for 48 hours through the same method as in Test Example 1 were stained using MitoTracker Orange (Thermo Fisher Scientific, MA, USA), which labels mitochondria depending on membrane potential. In addition, as a positive control section, in place of neopetasin, metformin known as a mitochondrial respiratory chain Complex I inhibitor (mitochondrial toxin) was used at a concentration of 5000 µM to perform the same experiment. Subsequently, the cells stained as described above were photographed with a fluorescence microscope (FIG. 9A). In addition, the relationship between fluorescence intensity of the cells and the distribution of the number of cells was measured using an image cytometer (Tali, Thermo Fisher Scientific, MA, USA) (FIG. 9B).

In assay [4] the test system is mitochondria in B16F10 cells. Kind of assay: Electron microscope observation of treated cells (Test Example 8). It is filed as cell-based, mouse. Conditions: neopetasin 3 µM, metformin 5000 µM. The protocol:
Following the above results, the cells respectively treated with neopetasin (3 µM) and metformin (5000 µM) in the above were observed using an electron microscope. Furthermore, DMSO was administered to the negative control section, and the same experiment was performed.

Turning to `O=CC[C@@H](O)[C@H](O)[C@H](O)CO` [2-DG, 2-deoxy-D-glucose, reference compound], in the assay with B16F10 cells, the cell viability entry is recorded as “reduced in a concentration-dependent manner”. As for `C=C(C)[C@@H]1C[C@@]2(C)C(=CC1=O)CC[C@@H](OC(=O)/C(C)=C\C)[C@@H]2C` [Petasin, petasin], the concentration for half-maximal inhibition (IC50) in assay [1] (Canis lupus familiaris, 72 h) came to 2.81 µM. Moreover, in the assay on colon cancer cell lines, the “migration and invasion of colon cancer cell lines” value was “suppressed migration and invasion”; the “proliferation of colon cancer cell lines” value is listed as “inhibited proliferation”. For the compound `C=C(C)[C@@H]1C[C@@]2(C)C(=CC1=O)CC[C@@H](OC(=O)/C=C\SC)[C@@H]2C` [S-petasin, reference compound], in assay [1], the “IC50 (µg/mL)” value is on record as 0.755 µg/mL (≈ 2.26 µM) and the 50% inhibitory concentration (IC50) stood at 2.26 µM.

`N.N.[Cl][Pt][Cl]` [cisplatin]: in assay [2], the “IC50 for B16F10 cells (classical anticancer agent)” value is 5 µg/mL. Consider `CN(C)C(=N)N=C(N)N` [metformin, reference compound], for which, in assay [3], the “MitoTracker Orange fluorescence intensity” value is reported as “enhanced fluorescence intensity”. Besides, the “influence on mitochondria (electron microscope)” value in assay [4] is listed as “the influence on mitochondria was mild”. For the compound neo-S-petasin [reference compound], in assay [1], the “IC50 (µg/mL)” value was determined as 0.537 µg/mL and the IC50 is 1.6 µM.
